One experiment deals with PARP. Briefly: PARP cleavage, western blot, HNT-34. In kind it is cell-based, human. Particulars: HNT-34, 10 nM Compound D. In general terms: In western blotting, separated proteins are transferred to a membrane and probed.
The next experiment deals with KG-1a cells. Briefly: Anti-proliferation 72-hour CTG assay, KG-1a. Particulars: Homo sapiens, read-out: IC50 of the anti-proliferative effect. It counts as cell-based. As for the experimental part:
(§1) A plethora of AML cell lines were treated with serial dilutions of Compound D. IC50 value of the anti-proliferation effect of Compound D (as determined in 72-hour CTG assays) in each cell line is summarized in Table 1.

Experiment [1] relates to ATF3, DDIT3, cleaved Caspases, cleaved PARP. The experiment in a line: UPR and apoptosis pathway components in KG1 cells. In kind it is cell-based, human. As to conditions: KG1, 200 nM. The method, then:
Cells were treated with DMSO alone or 200 nM Compound D. After 2, 4, or 6 hours, the expression levels of various cellular components along UPR or apoptosis pathways were measured. […] Reduction of BIP indicates UPR.
(§2) Cells were treated with DMSO alone, 200 nM Compound D, or 200 nM Compound E. After 8 or 12 hours, the expression levels of various cellular components along UPR or apoptosis pathways were measured. […] Reduction of BIP indicates UPR.
(§3) To further investigate the timeline of cellular events upon Compound D treatment, KG1 cells were treated with DMSO alone or 200 nM Compound D. At 2, 4, 6, 8, 10, or 12 hours, the expression levels of various cellular components along ATF4 or apoptosis pathways were measured.

The target in experiment [2] is T1, GSPT1 (Homo sapiens, UniProt P15170+Q96SW2). Briefly: GSPT1 degradation in NB4 cell line. It counts as cell-based. More on the design: endogenous in cells. As to conditions: NB4 cell line.
T1 sequence (P15170 1-637 isoform P15170-3): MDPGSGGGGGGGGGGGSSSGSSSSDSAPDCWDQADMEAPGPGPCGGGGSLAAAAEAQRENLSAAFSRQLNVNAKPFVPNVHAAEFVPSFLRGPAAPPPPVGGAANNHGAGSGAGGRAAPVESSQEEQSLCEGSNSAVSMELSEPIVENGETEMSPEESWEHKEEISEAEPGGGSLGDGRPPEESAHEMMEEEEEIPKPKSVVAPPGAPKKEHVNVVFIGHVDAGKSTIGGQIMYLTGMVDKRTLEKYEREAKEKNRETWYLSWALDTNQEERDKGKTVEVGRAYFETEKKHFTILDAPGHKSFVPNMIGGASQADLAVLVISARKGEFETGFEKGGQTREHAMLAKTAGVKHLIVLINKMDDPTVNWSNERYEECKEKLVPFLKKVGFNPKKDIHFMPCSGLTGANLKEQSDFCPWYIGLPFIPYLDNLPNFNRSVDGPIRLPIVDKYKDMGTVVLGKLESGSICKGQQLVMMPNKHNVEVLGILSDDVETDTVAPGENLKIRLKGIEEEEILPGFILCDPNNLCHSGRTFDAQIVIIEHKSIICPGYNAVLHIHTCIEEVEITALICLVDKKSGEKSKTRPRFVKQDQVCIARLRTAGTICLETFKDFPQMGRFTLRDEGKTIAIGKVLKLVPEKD
T1 sequence (Q96SW2 whole entry): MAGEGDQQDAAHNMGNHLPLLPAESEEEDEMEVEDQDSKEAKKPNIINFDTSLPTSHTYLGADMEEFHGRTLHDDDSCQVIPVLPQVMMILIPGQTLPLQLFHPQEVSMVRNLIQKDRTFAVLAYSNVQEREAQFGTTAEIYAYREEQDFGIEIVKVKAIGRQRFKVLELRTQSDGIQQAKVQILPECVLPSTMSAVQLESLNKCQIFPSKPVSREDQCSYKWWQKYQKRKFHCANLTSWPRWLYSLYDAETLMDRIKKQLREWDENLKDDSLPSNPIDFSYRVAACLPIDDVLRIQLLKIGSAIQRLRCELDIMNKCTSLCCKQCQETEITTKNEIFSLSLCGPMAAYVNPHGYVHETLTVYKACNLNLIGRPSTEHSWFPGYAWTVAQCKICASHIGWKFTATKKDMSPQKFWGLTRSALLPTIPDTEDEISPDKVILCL
T1 sequence (Q16531 whole entry partner): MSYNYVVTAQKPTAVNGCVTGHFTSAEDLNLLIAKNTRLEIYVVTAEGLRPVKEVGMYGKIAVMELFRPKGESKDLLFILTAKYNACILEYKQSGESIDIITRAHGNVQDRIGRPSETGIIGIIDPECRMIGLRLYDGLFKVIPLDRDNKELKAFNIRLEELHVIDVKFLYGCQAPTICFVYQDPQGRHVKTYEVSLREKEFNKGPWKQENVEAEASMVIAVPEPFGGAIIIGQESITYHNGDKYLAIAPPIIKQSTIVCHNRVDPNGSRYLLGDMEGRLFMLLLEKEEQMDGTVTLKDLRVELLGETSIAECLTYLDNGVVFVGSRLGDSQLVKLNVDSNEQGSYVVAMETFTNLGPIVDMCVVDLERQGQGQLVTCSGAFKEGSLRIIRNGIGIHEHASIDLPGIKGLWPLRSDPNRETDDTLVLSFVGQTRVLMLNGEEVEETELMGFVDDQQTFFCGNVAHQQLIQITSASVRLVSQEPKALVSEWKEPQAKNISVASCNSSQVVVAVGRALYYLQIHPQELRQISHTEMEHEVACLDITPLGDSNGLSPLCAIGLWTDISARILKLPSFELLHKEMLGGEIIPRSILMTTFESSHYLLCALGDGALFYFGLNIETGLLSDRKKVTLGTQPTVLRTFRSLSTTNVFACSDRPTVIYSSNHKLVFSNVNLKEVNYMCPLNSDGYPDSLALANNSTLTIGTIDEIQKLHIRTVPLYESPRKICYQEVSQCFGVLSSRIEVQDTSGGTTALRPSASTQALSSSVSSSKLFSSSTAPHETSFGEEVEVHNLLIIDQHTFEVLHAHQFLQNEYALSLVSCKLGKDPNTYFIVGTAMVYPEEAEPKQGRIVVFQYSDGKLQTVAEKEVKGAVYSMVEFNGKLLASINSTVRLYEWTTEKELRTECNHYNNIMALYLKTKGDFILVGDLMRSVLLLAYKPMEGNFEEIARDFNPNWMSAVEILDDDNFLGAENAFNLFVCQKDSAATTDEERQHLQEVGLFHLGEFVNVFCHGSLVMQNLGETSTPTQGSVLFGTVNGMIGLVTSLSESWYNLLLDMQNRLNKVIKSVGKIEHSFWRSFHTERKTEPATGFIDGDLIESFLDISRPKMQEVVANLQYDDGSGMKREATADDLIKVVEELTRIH
The target of experiment [3] is T1, GSPT1. The experiment in a line: GSPT1 protein reduction, western analysis, KG-1. It counts as cell-based. Details: reduction in GSPT1 protein level was evaluated in human normal PBMCs; endogenous in cells; host or cells: primary PBMCs from normal donors (ID 4328, 4379) and AML patients (ID 11SH, 09P6). As for the experimental part: as §2, §3
In two sensitive AML cell lines, KG-1 and HL-60, both a concentration-dependent decrease in GSPT1 protein and an increase in RNA expression of ATF3, CHOP, and SRSF3 and SRSF6 NMD transcripts at the 8-hour time point were compared to caspase 3/7 activation (apoptosis) at the 24-hour (FIG. 30A [KG-1]; FIG. 30C [HL-60]) and 48-hour (FIG. 30B [KG-1]; FIG. 30D [HL-60]) time points.
The reduction in the level of GSPT1 protein was concentration-dependent over the range of 3 to 1000 nM in eight of the nine AML cell lines and over the range of 300 to 1000 nM in one relatively insensitive AML cell line. The time course of the reduction in GSPT1 by Compound D also was studied for up to 48 hours. The progressive degradation of GSPT1 over the course of 1 to 20 hours was evident in the presence of all concentrations of Compound D studied from 3 to 300 nM in HNT-34, HL-60, and ML-2 cells, with little GSPT1 remaining by 20 hours at 100 or 300 nM Compound D in HNT-34 or HL-60 cells (FIG. 34 and FIG. 35C). Time-dependent reduction in GSPT1 was also observed in KG-1 and OCI-AML2 cells at 3 to 1000 nM Compound D, with little GSPT1 remaining in KG-1 cells at 100 to 300 nM at 24 hours or in OCI-AML2 cells at 300 and 1000 nM at 24 hours (FIG. 35D). Loss of GSPT1 occurred more slowly in Kasumi-1, AML-193, and F36-P cells.
Compound D-mediated GSPT1 reduction at 8 hours was compared to induction of caspase 3/7 activation (apoptosis) at 12, 24, and 48 hour time points in these nine AML cell lines. […] A positive association (r^2=0.50; R=0.71; p value=4.86E-002) was observed between the level of GSPT1 reduction and apoptosis induction in the AML cell panel (FIG. 36), with >90% GSPT1 reduction correlating with induction of apoptosis.

In a further experiment the test system is healthy donor PBMCs. Briefly: Anti-proliferation, healthy donor PBMCs. It counts as cell-based. Particulars: Homo sapiens, PBMC; healthy donor PBMCs (data not shown).
Experiment [4] deals with translational readthrough. Briefly: AML2 readthrough assay (Fluc/Nluc-G36A reporter), OCI-AML2. In kind it is cell-based, human. As to conditions: 300 μg/ml G418 or 200 nM Compound D. As for the experimental part: It is known that amino acid starvation causes GCN2 activation, which phosphorylates eIF2α. Because GSPT1 mediates normal translation termination, it is hypothesized that depletion of GSPT1 by Compound D may cause readthrough of stop codons. Whether the translational readthrough induced by Compound D contributes to the increased levels of p-eIF2α was investigated. OCI-AML2 cells stably expressing the Fluc/Nluc-G36A readthrough reporter were treated with 300 μg/ml G418 or 200 nM Compound D for 2, 4, 6, 8, 10, 12, or 16 hours. The levels of p-eIF2α were measured by immunoblot analysis. AML2 readthrough assay was conducted to measure the readthrough reporter.

The subject of experiment [5] is nontumorigenic human hepatocellular cell line THLE-2. The experiment in a line: Anti-proliferation, THLE-2. In kind it is cell-based. As to conditions: THLE-2 (data not shown).
Another experiment relates to OCI-AML3 cells. The experiment in a line: Apoptosis (caspase 3/7 activation), OCI-AML3. It counts as cell-based, human. Particulars: OCI-AML3, 123 nM.
The subject of a further experiment is MOLM-13 cells. The experiment in a line: Anti-proliferation CTG assay, MOLM-13. It counts as cell-based, human. As for the experimental part:
as §1
The effect of overexpression of GSPT1 on the anti-proliferative effect of Compound D and Compound E was determined in human histiocytic lymphoma cell line U937 and human leukemia cell line MOLM13. Treatment compounds (e.g., Compound D or Compound E) were titrated from 0.001 μM to 10 μM. Cell proliferation was measured by CellTiter-Glo cell viability assay at 48 hours after treatment. […] However, when exogenous GSPT1 was overproduced via the EF1α promoter, as shown in FIGS. 5A-5D, the anti-proliferative effect of Compound D and Compound E reduced.

Consider 1 molecule from patent US12474342B2, “Methods for treating cancer and the use of biomarkers as a predictor of clinical sensitivity to therapies” (CELGENE CORPORATION, priority 2016, dated 2025).

SMILES strings stand for the structures. A value given as a limit tells only on which side of the number the result lay.

Turning to `O=C1CCC(N2Cc3cc(CNC(=O)C(F)(F)c4ccc(Cl)cc4)ccc3C2=O)C(=O)N1` (stereo not drawn) [Compound D, 2-(4-chlorophenyl)-N-((2-(2,6-dioxopiperidin-3-yl)-1-oxoisoindolin-5-yl)methyl)-2,2-difluoroacetamide], in the experiment with PARP, the “time of PARP cleavage” value was 24 h. Moreover, the IC50 (in general, the point on the concentration scale where inhibition reaches its midpoint) in the experiment with KG-1a cells was 21 nM; with healthy donor PBMCs, over 10000 nM; in experiment [5], about 10000 nM; in the experiment on MOLM-13 cells (Homo sapiens, MOLM-13, 72-hour CTG assay, read-out: IC50 of the anti-proliferative effect), 75 nM. The “time at which levels of apoptotic markers started to increase” value in experiment [1] was “approximately 6 hrs”. Moreover, the “level of ATF3, DDIT3, cleaved Caspase-3, cleaved Caspase-8, and cleaved PARP” value in experiment [1] (8 or 12 hours) is on record as “increased the level”. For the same molecule, on GSPT1 [2], the “effect on GSPT1 level” value is “induced degradation”. Further, the “time of GSPT1 degradation” value at GSPT1 [3] (KG1, 200 nM) was at most 2 h. Also, the “degradation of GSPT1” value on GSPT1 [3] (KG1, 200 nM, 8 or 12 hours) is recorded as “induced degradation”. Moreover, the “reduction of GSPT1 protein levels” value on GSPT1 [3] (KG-1, 100 nM Compound D, 4 hours) is “greater than 800”; on GSPT1 [3] (KG-1, 100 nM or greater, 8-hour time point), over 90%. In addition, the translational readthrough result in experiment [4] was “induced translational readthrough at a comparable level”. In the experiment on OCI-AML3 cells (12 hr), the “Average Percent Increase in Apoptosis at 123 nM Compound D, Apoptosis (12 hr)” value worked out at 0%. Further, the “Average Percent Increase in Apoptosis at 123 nM Compound D, Apoptosis (24 hr)” value in the experiment on OCI-AML3 cells (24 hr) was found to be 1%. The “Average Percent Increase in Apoptosis at 123 nM Compound D, Apoptosis (48 hr)” value in the experiment on OCI-AML3 cells (48 hr) is reported as 2%. Also, the anti-proliferative effect entry in the experiment on MOLM-13 cells (MOLM13 CRBN -/- cells, 48 hours) was “completely abolished”. In the experiment with MOLM-13 cells (MOLM13 parental cells, 0.001 μM to 10 μM, 48 hours), the “cell proliferation (CellTiter-Glo)” value was “inhibited cell proliferation”.
